In assay [1] the target is N-terminal GST tagged recombinant human RET cytoplasmic domain (aa 658-end), wild type RET kinase (Homo sapiens (Human), UniProt P07949). In words: RET Enzyme Assay (HTRF KinEASE-TK), wild type RET. The format is biochemical. Background: In TR-FRET formats the signal depends on donor and acceptor labels being close together.
Assay [2] addresses Kif5b-RET fusion protein in HEK-293 cells (Homo sapiens, UniProt P07949). Put plainly: cell-based. The protocol: The cellular potency of a compound inhibiting RET kinase was determined in HEK-293 cells expressing a Kif5b-RET fusion protein. Briefly, HEK-293 cells expressing a Kif5b-RET fusion protein were plated at 50K cells/well in 96 well poly-D-Lysine coated plates the day prior to the assay. The cells were incubated for 1 hour with test compound in DMEM (Dulbecco's Modified Eagle Medium) at a final DMSO concentration of 0.5%. […] After 1 hour the media was removed, the cells were fixed with 3.8% formaldehyde for 20 min, washed with PBS, and permeabilized for 10 min with 100% methanol. […] All antibodies were diluted in LI-COR Block containing 0.05% Tween. The plates were washed with PBS-0.05% Tween20, 100 μL PBS was added to each well, and the plates were read on a LI-COR Aerius fluorescent plate reader. The phospho-RET signal was normalized to the GAPDH signal. […] The IC50 value is the point where the curve crosses 50 POC.

Setting [3] is: HEK-293 cells expressing Kif5b-RET, read-out: KIF5B-RET pTYR1062 Cell IC50.
[4] abbreviates: HEK-293 cells expressing Kif5b-RET, phospho-RET(Tyr1062), read-out: KIF5B-RET pTYR1062 Cell IC50.
[5] abbreviates: read-out: KIF5B-RET pTYR1062 Cell IC50.

Where a name gives a salt, the structure may show the parent alone. Read-outs that look alike come from different tables or passages of the source.

Sequence of Kif5b-RET fusion protein in HEK-293 cells (P07949 29-1114 limits assumed): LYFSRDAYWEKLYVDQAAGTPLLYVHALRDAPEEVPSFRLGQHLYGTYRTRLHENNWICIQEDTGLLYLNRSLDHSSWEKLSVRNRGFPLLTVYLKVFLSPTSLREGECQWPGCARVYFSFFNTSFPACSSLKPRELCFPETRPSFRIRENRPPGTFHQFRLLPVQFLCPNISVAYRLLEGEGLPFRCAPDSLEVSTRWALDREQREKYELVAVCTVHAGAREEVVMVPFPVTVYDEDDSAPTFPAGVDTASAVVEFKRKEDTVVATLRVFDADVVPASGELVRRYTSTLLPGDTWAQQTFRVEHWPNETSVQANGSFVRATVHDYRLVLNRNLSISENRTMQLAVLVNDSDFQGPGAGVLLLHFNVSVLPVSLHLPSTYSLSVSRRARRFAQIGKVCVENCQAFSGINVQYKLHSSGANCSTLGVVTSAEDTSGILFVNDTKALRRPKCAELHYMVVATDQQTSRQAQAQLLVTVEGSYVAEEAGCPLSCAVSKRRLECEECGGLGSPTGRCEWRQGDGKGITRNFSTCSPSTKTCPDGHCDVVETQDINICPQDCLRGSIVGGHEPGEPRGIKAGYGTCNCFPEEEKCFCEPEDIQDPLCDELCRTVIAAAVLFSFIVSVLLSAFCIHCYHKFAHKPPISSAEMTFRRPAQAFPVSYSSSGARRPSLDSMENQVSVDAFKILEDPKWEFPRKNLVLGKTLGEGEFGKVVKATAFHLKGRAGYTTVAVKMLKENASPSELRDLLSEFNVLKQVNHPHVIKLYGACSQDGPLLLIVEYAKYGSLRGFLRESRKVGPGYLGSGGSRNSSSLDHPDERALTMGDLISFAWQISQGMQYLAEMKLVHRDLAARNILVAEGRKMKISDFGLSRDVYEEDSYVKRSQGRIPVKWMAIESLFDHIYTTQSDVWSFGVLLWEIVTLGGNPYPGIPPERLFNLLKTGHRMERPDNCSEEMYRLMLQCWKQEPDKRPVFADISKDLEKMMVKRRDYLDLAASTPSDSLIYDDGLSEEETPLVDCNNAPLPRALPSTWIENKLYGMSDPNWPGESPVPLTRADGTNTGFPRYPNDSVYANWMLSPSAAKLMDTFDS
Sequence of N-terminal GST tagged recombinant human RET cytoplasmic domain (aa 658-end), wild type RET kinase (P07949 658-1114): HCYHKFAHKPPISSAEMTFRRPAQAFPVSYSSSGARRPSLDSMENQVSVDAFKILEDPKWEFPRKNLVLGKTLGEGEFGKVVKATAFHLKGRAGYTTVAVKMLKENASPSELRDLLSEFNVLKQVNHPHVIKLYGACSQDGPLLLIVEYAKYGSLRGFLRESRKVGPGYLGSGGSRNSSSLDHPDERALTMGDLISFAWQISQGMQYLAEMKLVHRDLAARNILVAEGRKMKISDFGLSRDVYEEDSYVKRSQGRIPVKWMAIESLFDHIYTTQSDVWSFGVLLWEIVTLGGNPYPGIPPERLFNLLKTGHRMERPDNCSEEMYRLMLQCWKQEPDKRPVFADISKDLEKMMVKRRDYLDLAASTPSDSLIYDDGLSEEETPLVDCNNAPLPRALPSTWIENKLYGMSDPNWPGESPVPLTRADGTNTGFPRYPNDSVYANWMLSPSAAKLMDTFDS

For the compound `COc1ccc(CN2CCN(c3ccc(-c4cc(-c5cnn(CC(C)CO)c5)cn5ncc(C#N)c45)cn3)CC2)cn1` (stereo in doubt) [Example 707, (R)-6-(1-(3-hydroxy-2-methylpropyl)-1H-pyrazol-4-yl)-4-(6-(4-((6-methoxypyridin-3-yl)methyl)piperazin-1-yl)pyridin-3-yl)pyrazolo[1,5-a]pyridine-3-carbonitrile], the half-maximal inhibitory concentration (IC50) (as a rule, the concentration that gives 50% inhibition) in assay [1] (wild type RET, 1 mM ATP) is 20.1 nM; in assay [2] (setting [3]), 6.5 nM.

As to `COc1ccc(CN2CCN(c3ccc(-c4cc(-c5cnn(CC(C)CO)c5)cn5ncc(C#N)c45)cn3)CC2)cn1` (stereo in doubt) [Example 708, (S)-6-(1-(3-hydroxy-2-methylpropyl)-1H-pyrazol-4-yl)-4-(6-(4-((6-methoxypyridin-3-yl)methyl)piperazin-1-yl)pyridin-3-yl)pyrazolo[1,5-a]pyridine-3-carbonitrile], the concentration for half-maximal inhibition (IC50) in assay [1] (wild type RET, 1 mM ATP) turned out to be 19.4 nM; in assay [2] (setting [3]), 7 nM.

For `Cn1cc(-c2cc(-c3ccc(N4CCN(C(=O)OC(C)(C)C)CC4)nc3)c3c(C#N)cnn3c2)cn1` [Example 1, tert-butyl 4-(5-(3-cyano-6-(1-methyl-1H-pyrazol-4-yl)pyrazolo[1,5-a]pyridin-4-yl)pyridin-2-yl)piperazine-1-carboxylate], the 50% inhibitory concentration (IC50) in assay [1] (wild type RET, 1 mM ATP) came to 35.8 nM; in assay [2] (setting [4]), 47.5 nM.

Regarding `Cn1cc(-c2cc(-c3ccc(N4CCN(C(=O)CCS(C)(=O)=O)CC4)nc3)c3c(C#N)cnn3c2)cn1` [Example 3, 6-(1-methyl-1H-pyrazol-4-yl)-4-(6-(4-(3-(methylsulfonyl)propanoyl)piperazin-1-yl)pyridin-3-yl)pyrazolo[1,5-a]pyridine-3-carbonitrile], the IC50 stood at 11.9 nM in assay [1] (wild type RET, 1 mM ATP) and 119 nM in assay [2] (setting [4]).

In the case of `CN(C)CCC(=O)N1CCN(c2ccc(-c3cc(-c4cnn(C)c4)cn4ncc(C#N)c34)cn2)CC1` [Example 33, 4-(6-(4-(3-(dimethylamino)propanoyl)piperazin-1-yl)pyridin-3-yl)-6-(1-methyl-1H-pyrazol-4-yl)pyrazolo[1,5-a]pyridine-3-carbonitrile bis(2,2,2-trifluoroacetate)], the concentration for half-maximal inhibition (IC50) in assay [1] (wild type RET, 1 mM ATP) was 42.9 nM; in assay [2] (setting [5]), 310 nM.

`CN(C)CCCC(=O)N1CCN(c2ccc(-c3cc(-c4cnn(C)c4)cn4ncc(C#N)c34)cn2)CC1` [Example 52, 4-(6-(4-(4-(dimethylamino)butanoyl)piperazin-1-yl)pyridin-3-yl)-6-(1-methyl-1H-pyrazol-4-yl)pyrazolo[1,5-a]pyridine-3-carbonitrile bis(2,2,2-trifluoroacetate)]: the half-inhibitory concentration (IC50) in assay [1] was 17.7 nM; in assay [2] (setting [4]), 340 nM.

For `CC[C@@H](CO)NC(=O)N1CCN(c2ccc(-c3cc(-c4cnn(C)c4)cn4ncc(C#N)c34)cn2)CC1` [Example 122, (S)-4-(5-(3-cyano-6-(1-methyl-1H-pyrazol-4-yl)pyrazolo[1,5-a]pyridin-4-yl)pyridin-2-yl)-N-(1-hydroxybutan-2-yl)piperazine-1-carboxamide], the half-maximal inhibitory concentration (IC50) in assay [1] (wild type RET, 1 mM ATP) was determined as 11.3 nM; in assay [2] (setting [4]), 267 nM.

For the compound `C[C@H](O)C(=O)NC1CCN(c2ccc(-c3cc(-c4cnn(C)c4)cn4ncc(C#N)c34)cn2)CC1` [Example 180, (S)-N-(1-(5-(3-cyano-6-(1-methyl-1H-pyrazol-4-yl)pyrazolo[1,5-a]pyridin-4-yl)pyridin-2-yl)piperidin-4-yl)-2-hydroxypropanamide], the IC50 in assay [1] (wild type RET, 1 mM ATP) stood at 13.6 nM; in assay [2] (setting [4]) it was 135 nM.

Turning to `CC(C)C(=O)N[C@H]1CCCN(c2ccc(-c3cc(-c4cnn(C)c4)cn4ncc(C#N)c34)cn2)C1` [Example 225, (S)—N-(1-(5-(3-cyano-6-(1-methyl-1H-pyrazol-4-yl)pyrazolo[1,5-a]pyridin-4-yl)pyridin-2-yl)piperidin-3-yl)isobutyramide], the IC50 in assay [1] (wild type RET, 1 mM ATP) is 104 nM; in assay [2] (setting [4]), 462 nM.

In the case of `CC(O)CN(C)C(=O)C1CCN(c2ccc(-c3cc(-c4cnn(C)c4)cn4ncc(C#N)c34)cn2)CC1` (stereo not drawn) [Example 245, 1-(5-(3-cyano-6-(1-methyl-1H-pyrazol-4-yl)pyrazolo[1,5-a]pyridin-4-yl)pyridin-2-yl)-N-(2-hydroxypropyl)-N-methylpiperidine-4-carboxamide], the 50% inhibitory concentration (IC50) in assay [1] (wild type RET, 1 mM ATP) is 30.2 nM; in assay [2] (setting [4]) it was 191 nM.

For the compound `CC(C)(C)OC(=O)N1CCN(c2ccc(-c3cc(-c4cnn(C(F)F)c4)cn4ncc(C#N)c34)cn2)CC1` [Example 265, tert-Butyl 4-(5-(3-cyano-6-(1-(difluoromethyl)-1H-pyrazol-4-yl)pyrazolo[1,5-a]pyridin-4-yl)pyridin-2-yl)piperazine-1-carboxylate], the 50% inhibitory concentration (IC50) in assay [1] (wild type RET, 1 mM ATP) is 153 nM; in assay [2] (setting [4]), 289 nM.

On to `N#Cc1cnn2cc(-c3cnn(C(F)F)c3)cc(-c3ccc(N4CCNCC4)nc3)c12` [Example 266, 6-(1-(difluoromethyl)-1H-pyrazol-4-yl)-4-(6-(piperazin-1-yl)pyridin-3-yl)pyrazolo[1,5-a]pyridine-3-carbonitrile dihydrochloride], for which the IC50 came to 47.7 nM in assay [1] (wild type RET, 1 mM ATP) and 162 nM in assay [2] (setting [5]).

As for `Cn1cc(-c2cc(-c3ccc(N4CCN(C(=O)OC(C)(C)C)CC4)nc3)c3c(Cl)cnn3c2)cn1` [Example 325, tert-butyl 4-(5-(3-chloro-6-(1-methyl-1H-pyrazol-4-yl)pyrazolo[1,5-a]pyridin-4-yl)pyridin-2-yl)piperazine-1-carboxylate], the IC50 in assay [1] (wild type RET, 1 mM ATP) was found to be 372 nM; in assay [2] (setting [4]), 742 nM.

For `CNC(=O)N1CCN(c2ccc(-c3cc(-c4cnn(C)c4)cn4ncc(C#N)c34)cn2)CC1` [Example 387, 4-(5-(3-cyano-6-(1-methyl-1H-pyrazol-4-yl)pyrazolo[1,5-a]pyridin-4-yl)pyridin-2-yl)-N-methylpiperazine-1-carboxamide], the concentration for half-maximal inhibition (IC50) in assay [1] (wild type RET, 1 mM ATP) turned out to be 25.1 nM; in assay [2], 53.2 nM.

As for `COc1cccc(CN2CCN(c3ccc(-c4cc(-c5cnn(C)c5)cn5ncc(C#N)c45)cn3)CC2)n1` [Example 399, 4-(6-(4-((6-methoxypyridin-2-yl)methyl)piperazin-1-yl)pyridin-3-yl)-6-(1-methyl-1H-pyrazol-4-yl)pyrazolo[1,5-a]pyridine-3-carbonitrile], the IC50 in assay [1] (wild type RET, 1 mM ATP) is 10.8 nM; in assay [2] (setting [3]), 7.7 nM.

For `CC(C)S(=O)(=O)CCN1CCN(c2ccc(-c3cc(-c4cnn(C)c4)cn4ncc(C#N)c34)cn2)CC1` [Example 403, 4-(6-(4-(2-(isopropylsulfonyl)ethyl)piperazin-1-yl)pyridin-3-yl)-6-(1-methyl-1H-pyrazol-4-yl)pyrazolo[1,5-a]pyridine-3-carbonitrile], the half-maximal inhibitory concentration (IC50) worked out at 10.8 nM in assay [1] (wild type RET, 1 mM ATP) and 4.6 nM in assay [2] (setting [3]).

As to `COCCCN1CCN(c2ccc(-c3cc(-c4cnn(C)c4)cn4ncc(C#N)c34)cn2)CC1` [Example 405, 4-(6-(4-(3-methoxypropyl)piperazin-1-yl)pyridin-3-yl)-6-(1-methyl-1H-pyrazol-4-yl)pyrazolo[1,5-a]pyridine-3-carbonitrile], the IC50 in assay [1] (wild type RET, 1 mM ATP) was 30.8 nM; in assay [2] (setting [3]), 32.5 nM.

On to `COC(CN1CCN(c2ccc(-c3cc(-c4cnn(C)c4)cn4ncc(C#N)c34)cn2)CC1)C(C)(C)C` (stereo not drawn) [Example 417, 4-(6-(4-(2-methoxy-3,3-dimethylbutyl)piperazin-1-yl)pyridin-3-yl)-6-(1-methyl-1H-pyrazol-4-yl)pyrazolo[1,5-a]pyridine-3-carbonitrile], for which the IC50 was determined as 37.1 nM in assay [1] (wild type RET, 1 mM ATP) and 48.5 nM in assay [2] (setting [3]).

As for `CN(C)C(=O)C1CCN(c2ccc(-c3cc(-c4cnn(C)c4)cn4ncc(C#N)c34)cn2)CC1` [Example 562, 1-(5-(3-cyano-6-(1-methyl-1H-pyrazol-4-yl)pyrazolo[1,5-a]pyridine-4-yl)pyridine-2-yl)-N,N-dimethylpiperidine-4-carboxamide 2,2,2-trifluoroacetate], the IC50 in assay [1] worked out at 56 nM; in assay [2] (setting [3]), 58.6 nM.

Take `Cn1cc(-c2cc(-c3ccc(N4CCC(C(=O)NOCCO)CC4)nc3)c3c(C#N)cnn3c2)cn1` [Example 566, 1-(5-(3-cyano-6-(1-methyl-1H-pyrazol-4-yl)pyrazolo[1,5-a]pyridin-4-yl)pyridin-2-yl)-N-(2-hydroxyethoxy)piperidine-4-carboxamide]: the IC50 in assay [1] (wild type RET, 1 mM ATP) is 9 nM; in assay [2] (setting [3]), 146 nM.

`Cn1cc(-c2cc(-c3ccc(N4CCC(S(=O)(=O)O)CC4)nc3)c3c(C#N)cnn3c2)cn1` [Example 568, 1-(5-(3-cyano-6-(1-methyl-1H-pyrazol-4-yl)pyrazolo[1,5-a]pyridin-4-yl)pyridin-2-yl)piperidine-4-sulfonic acid]: the IC50 in assay [1] (wild type RET, 1 mM ATP) came out at 6.1 nM; in assay [2] (setting [3]), 5000 nM.

On to `CC(C)OCCN1CCN(c2ccc(-c3cc(-c4cnn(C(F)F)c4)cn4ncc(C#N)c34)cn2)CC1` [Example 585, 6-(1-(difluoromethyl)-1H-pyrazol-4-yl)-4-(6-(4-(2-isopropoxyethyl)piperazin-1-yl)pyridin-3-yl)pyrazolo[1,5-a]pyridine-3-carbonitrile], for which the half-inhibitory concentration (IC50) in assay [1] (wild type RET, 1 mM ATP) turned out to be 13.6 nM; in assay [2], 13.2 nM.

As to `COc1ccc(CN2CCN(c3ccc(-c4cc(-c5cnn(C(F)F)c5)cn5ncc(C#N)c45)cn3)CC2)cn1` [Example 696, 6-(1-(difluoromethyl)-1H-pyrazol-4-yl)-4-(6-(4-((6-methoxypyridin-3-yl)methyl)piperazin-1-yl)pyridin-3-yl)pyrazolo[1,5-a]pyridine-3-carbonitrile], in assay [2] (setting [3]), the IC50 was determined as 16.1 nM.
